# Experimental data: patent publication US20100151015A1 (priority 2008, published 2010)
# How the values were obtained:
# [1] = system: psychosis associated with PD; conditions: initial open-label studies; cited from earlier work
# [2] = cited from earlier work
# [3] = Solubility of Melperone HCl in various media; assay type: physicochemical
# [4] = cited from earlier work; remark: listed apart in the source
# [5] = human, in vivo; cited from earlier work
# [6] = system: psychosis in patients with PD; conditions: cited from earlier work
compound,measurement,setting,value
OCCOCCN1CCN(C2=Nc3ccccc3Sc3ccccc32)CC1 [quetiapine],efficacy in psychosis associated with PD,[1],has shown efficacy
same,patients with worsening of motor symptoms of PD,[1],up to 30%
"CC1CCN(CCCC(=O)c2ccc(F)cc2)CC1.Cl [Melperone HCl, 1-(4-fluorophenyl)-4-(4-methyl-1-piperidinyl)-1-butanone hydrochloride]",pKa,[2],9.1
same,solubility,"[3]; ethanol, organic solvent or mixture",88.5 mg/mL
same,solubility,"[3]; phosphate buffer, aqueous buffer, pH 4.5 (phosphate)",800 mg/mL
same,solubility,"[3]; phosphate buffer, aqueous buffer, pH 6.8 (phosphate)",800 mg/mL
same,solubility,"[3]; phosphate buffer, aqueous buffer, pH 7.0 (phosphate)",≥ 100 mg/mL
same,solubility,"[3]; phosphate buffer, aqueous buffer, pH 7.1 (phosphate)",51.3 mg/mL
same,solubility,"[3]; phosphate buffer, aqueous buffer, pH 7.5 (phosphate)",25.6 mg/mL
same,solubility,"[3]; purified water, water",800 mg/mL
same,solubility,"[3]; simulated gastric fluid, pH 1.2 (0.1N HCl)",700 mg/mL
CC1CCN(CCCC(=O)c2ccc(F)cc2)CC1 [melperone],mean Tmax,[4]; oral tablet administration,1.5 to 3.0 h
same,absolute oral bioavailability,"[4]; oral, extensive first-pass metabolism",50-70%
same,incidence of extrapyramidal side effect (EPS) or tardive dyskinesia,[5],low incidence
same,Solubility in aqueous solutions,[3]; higher pH values (above pH=7.5),poorly soluble
same,Solubility in aqueous solutions,[3]; pH range from about 1.2 up to about pH 6.8,freely soluble
same,time over which efficacy was maintained,[6]; mean daily dose of 37.5 mg,2 years
same,efficacy in the treatment of psychosis in patients with PD,[6]; proof-of-concept study,has shown efficacy
same,onset of efficacy,[6]; proof-of-concept study,rapid (within a week)
